Values of other authors as cited in patent US20060058225A1, “Used of inhibitors of phospholipase a2 for the treatment, prevention or diagnosis of neural inflammatory or demyelinating disease” (McGill University, priority 2002, published 2006).
Read-outs that look alike come from different tables or passages of the source.

Legend:
[1] = tested on: EAE; settings: for disease severity score in treated mice: timing of treatment not stated
[2] = tested on: EAE
[3] = tested on: EAE; remark: listed apart in the source
[4] = target: T1, cPLA2 (Homo sapiens, UniProt P47712)
T1 sequence (P47712 1-749): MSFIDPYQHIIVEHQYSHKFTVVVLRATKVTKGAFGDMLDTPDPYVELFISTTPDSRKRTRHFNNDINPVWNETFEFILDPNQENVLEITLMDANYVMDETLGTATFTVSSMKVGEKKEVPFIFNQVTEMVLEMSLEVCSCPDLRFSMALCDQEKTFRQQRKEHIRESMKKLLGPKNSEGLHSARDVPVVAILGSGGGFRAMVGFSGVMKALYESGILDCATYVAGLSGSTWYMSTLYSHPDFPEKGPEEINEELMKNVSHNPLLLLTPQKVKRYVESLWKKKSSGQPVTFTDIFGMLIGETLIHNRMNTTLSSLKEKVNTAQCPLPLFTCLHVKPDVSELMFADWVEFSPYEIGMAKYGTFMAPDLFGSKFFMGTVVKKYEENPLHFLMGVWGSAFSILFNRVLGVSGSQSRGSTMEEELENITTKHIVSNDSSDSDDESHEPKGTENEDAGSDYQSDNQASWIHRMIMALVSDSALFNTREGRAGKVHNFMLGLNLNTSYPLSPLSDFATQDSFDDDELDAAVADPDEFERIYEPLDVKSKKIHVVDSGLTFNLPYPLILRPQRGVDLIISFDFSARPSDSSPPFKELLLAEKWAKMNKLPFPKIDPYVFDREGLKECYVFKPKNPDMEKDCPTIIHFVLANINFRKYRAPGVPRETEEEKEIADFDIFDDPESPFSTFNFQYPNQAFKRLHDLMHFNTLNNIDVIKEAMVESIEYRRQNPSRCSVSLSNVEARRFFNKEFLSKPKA

[5] = tested on: Ca++-independent PLA2
[6] = tested on: MS; settings: for effect on relapses: MS patients
[7] = tested on: sPLA2
[8] = tested on: EAE; settings: guinea pigs
[9] = tested on: 180 kDa calcium-dependent form of cPLA2; settings: isolated from human brain
[10] = treatment given after symptoms occurred

Molecule: CCCOc1cc([C@]2(C)CNC(=O)O2)ccc1OC [Mesopram]
- clinical score in treated mice ([1]; treatment after symptoms began / at first clinical signs): 2.7
- EAE occurrence ([2]; rats treated before the onset of symptoms): prevented

Molecule: NS(=O)(=O)c1cccc2c1c([N+](=O)[O-])cc1nc(O)c(O)nc12 [NBQX]
- clinical score in treated animals ([3]; in vivo): 1.5

Molecule: O=C1O/C(=C/Br)CCC1c1cccc2ccccc12 (stereo not shown) [bromoenol lactone]
- inhibition of cPLA2 [4]: inhibitors
- inhibition of Ca++-independent PLA2 [5]: inhibitors

Molecule: O=C(NN=C1CCCCC1)C(=O)NN=C1CCCCC1 [cuprizone]
- clinical score in treated mice ([1]; treatment before symptoms appeared (cuprizone: one week before EAE induction)): 3.3

Molecule: O=C1c2c(O)ccc(O)c2C(=O)c2c(NCCNCCO)ccc(NCCNCCO)c21 [mitroxantrone]
- effect on relapses [6]: reduces relapse rate
- side effects ([6]; patients): cardiac toxicity

Molecule: O=C(CBr)c1ccc(Br)cc1 [p-bromophenacyl bromide]
- inhibition of sPLA2 activity [7]: blocked

Molecule: CN1C(C(=O)Nc2ccccn2)=C(O)c2ccccc2S1(=O)=O [piroxicam]
- mean clinical grade/score in treated rats ([2]; rats): 1.5

Molecule: CC1=C(/C=C/C(C)=C/C=C/C(C)=C/C(N)=O)C(C)(C)CCC1 [retinamide]
- relapse ([3]; given after disease symptoms appeared): no relapse
- clinical grade, end of course ([3]; given prior to EAE induction): 0.75
- relapse ([3]; given prior to EAE induction): no sign of relapse
- clinical grade reached ([3]; given prior to EAE induction, controls 3 during relapses): 2
- clinical grade, end of course [3, 10]: 2
- clinical grade, start of course [3, 10]: 4

Molecule: O=C(O)c1cc(/N=N/c2ccc(S(=O)(=O)Nc3ccccn3)cc2)ccc1O [sulfasalazine]
- disease incidence [8]: reduced disease incidence

Molecule: Glatiramer acetate
- effect on relapses [6]: decreases the rate of relapse
- side effects ([6]; human, in vivo): cardiovascular problems such as chest pain, flushing and tachycardia

Molecule: IFN-γ: interferon gamma
- effect on relapses [6]: increases the severity of the rate of relapse

Molecule: MT-II: Metallothinine (MT), thought to protect cells from reactive oxygen species
- clinical score ([2]; rats treated starting at the day of onset of symptoms, controls 4.5): 2

Molecule: bromophenacyl bromide
- inhibition of 180 kDa calcium-dependent cPLA2 [9]: inhibited

Molecule: estrogen
- delay of disease onset ([1]; mice): about 10 days
- reduction of EAE incidence ([1]; mice, timing not given): ~30%
- disease severity score in treated mice [1]: 1.5

B1: MBP: myelin basic protein fed for oral tolerance (protein, UniProt P02686 1-304, looked up)
Myelin basic protein: MGNHAGKRELNAEKASTNSETNRGESEKKRNLGELSRTTSEDNEVFGEADANQNNGTSSQDTAVTDSKRTADPKNAWQDAHPADPGSRPHLIRLFSRDAPGREDNTFKDRPSESDELQTIQEDSAATSESLDVMASQKRPSQRHGSKYLATASTMDHARHGFLPRHRDTGILDSIGRFFGGDRGAPKRGSGKDSHHPARTAHYGSLPQKSHGRTQDENPVVHFFKNIVTPRTPPPSQGKGRGLSLSRFSWGAEGQRPGFGYGGRASDYKSAHKGFKGVDAQGTLSKIFKLGGRDSRSGSPMARR
- disease severity score in treated mice [1]: 0.6
- reduction of EAE incidence ([3]; animals, species not given): 80%
- maximum disease severity score ([2]; rats fed prior to disease induction, control 4): 1.4
